Ki and IC50 data for two molecules are collected here from PMC11909086, “Synthesis and characterization of novel bis(thiosemicarbazone) complexes and investigation of their acetylcholinesterase and glutathione S-transferase activities with in silico and in vitro studies” (Molecular Diversity, 2024).

The target of assay [1] is T1, GST (glutathione S-transferase).
T1 construct: PDB 7BIB is only the docking model
Briefly: CDNB-GSH conjugation, […] nm, Lineweaver–Burk. In kind it is biochemical. Conditions: CDNB and GSH, phosphate pH […].

Assay [2] has the same target. Briefly: CDNB-GSH conjugation, […] nm (Habig). Conditions: CDNB and GSH, phosphate pH […]. The class given is biochemical.

Molecule `C=C(CC)C(=O)c1ccc(OCC(=O)O)c(Cl)c1Cl` [Ethacrynic acid, reference compound] yielded a Ki in assay [1] of 9.39 ± 3.3 µM. This molecule also returned an IC50 in assay [2] of 0.374 µM.
In assay [1], `COc1ccc(NN=C2C(=NNC(N)=S)CCCC2=NNC(N)=S)cc1` [L, 2,2′-(2-(2-(4-methoxyphenyl)hydrazineylidene)cyclohexane-1,3-diylidene)bis(hydrazine-1-carbothioamide)] registered a Ki of 11.7 ± 5.45 µM. In assay [2], this molecule showed an IC50 of 2.19 µM.

The term Ki denotes a measure of affinity in units of concentration, obtained from inhibition or displacement. Low values mean higher affinity, high ones lower affinity. For orientation: IC50 means the midpoint of a concentration-inhibition curve. A lower IC50 goes with greater potency in that assay.
